“Also recorded” adds a separate entry of the source. Where two headings read alike, the source gives them in different places.
Assays:
wild type N-NTD = system: wild type N-NTD; parameters: method as in PMID 22272272; conditions: hexachlorofluorescein labeled ssRNA titrated with N-NTD; read-out: KD of RNA binding to N-NTD; cited from earlier work
[1] = Cytotoxicity in Vero E6 cells; conditions: African green monkey
COX = conditions: cited from earlier work; for COX Inhibition: which COX is inhibited, ref 11 (given for naproxen A and C0)
[2] = system: N NTD oligomerization induced by 48-mer DNA; type: biochemical; conditions: for Oligomer Inhibition/Enhancement / Oligomer Size (hydrodynamic diameter Dh of DNA-NTD complex): NTD (60 µM) monomer, [compound] = 37.5 µM, [48-mer] = 29.4 µM; for Oligomer Size (hydrodynamic diameter Dh of DNA-NTD complex): 20 °C, without ligand 15.7 ± 0.7
SARS-CoV-2 [3] = experiment: microbe, parasite or virus in culture; type: cell-based; conditions: for effect on viral replication: infected Vero E6 cells, MOI 0.01, 48 and 72 hpi
Influenza A virus = conditions: cited from earlier work
in vitro = conditions: African green monkey
[4] = molecular target: SARS-CoV-2 N-NTD (monomer) with labeled 10-mer RNA (Severe acute respiratory syndrome coronavirus 2, UniProt P0DTC9); experiment: biochemical; conditions: read-out: N Binding, Fluo Anisotropy (KD, displacement of RNA)
SARS-CoV-2 in nasal HAE = conditions: 90 µM or 300 µM, postinfection treatment, 48 hpi
viral 3C-like protease = conditions: cited from earlier work
SARS-CoV-2 [5] = system: SARS-CoV-2; parameters: method as in PMID 33441348; conditions: cited from earlier work
[6] = Vero E6, MOI 0.01, treatment 1 hpi

For “10-mer RNA: fluorescently labeled RNA UCUCUAAACG labeled with 5′-hexachlorofluorescein”, the Kd (wild type N-NTD) is listed as 8.3 ± 0.8 µM.
With CC(=O)Nc1ccc(O)cc1 [Acetaminophen (paracetamol), Acetaminophen] the CC50 [1] was > 400 µM, the CC50 at 48 h post infection [1] was > 400 µM and the CC50 at 72 h post infection [1] was > 400 µM. The “COX Inhibition” value (COX) was “COX1 + COX2 ? ^1”, the “Oligomer Inhibition/Enhancement” value [2] was “did not modify NTD oligomerization” and the “Oligomer Size (hydrodynamic diameter Dh of DNA-NTD complex)” value [2] was 14.0 ± 1.0 nm. For the same molecule, the “Mean IC50 (viral replication)” value (SARS-CoV-2 [3]; [6]) was “No inhibition” and the “effect on viral replication” value (SARS-CoV-2 [3]) was “No inhibition of viral replication; also recorded: mainly not affecting viral replication”.
For Cc1ccc(-c2cc(C(F)(F)F)nn2-c2ccc(S(N)(=O)=O)cc2)cc1 [Celecoxib], the CC50 [1] is listed as 80 µM, the CC50 at 48 h post infection [1] is listed as 83 µM and the “COX Inhibition” value (COX) is listed as “COX2”. For the same molecule, the “Oligomer Inhibition/Enhancement” value ([2]; listed as celecoxib) was “enhanced the formation of large species”, the “Oligomer Size, large particles formed” value ([2]; compound in DMSO, compared to N + DMSO (12 nm)) was “^7 Formation of large particles of 3 µm as compared to N + DMSO (12 nm)” and the “Mean IC50 (viral replication)” value (SARS-CoV-2 [3]; [6]) was “proviral”. For the same molecule, the “effect on viral replication” value (SARS-CoV-2 [3]) was “No inhibition of viral replication; also recorded: did not present a clear antiviral effect”.
In the case of COc1ccc2cc(C(CCC(=O)O)C(=O)O)ccc2c1 (stereo not drawn) [Naproxen A], the “antiviral effect against Influenza A virus” value (Influenza A virus) is given as “no antiviral effect”, the “ability to inhibit COX” value (COX) is given as “lacked the ability to inhibit COX” and the “Oligomer Size (hydrodynamic diameter Dh of DNA-NTD complex)” value [2] is given as 16.0 ± 0.8 nm. For the same molecule, the CC50 (in vitro) was > 1000 µM, the CC50 at 48 h post infection (in vitro) was > 1000 µM and the CC50 at 72 h post infection (in vitro) was > 1000 µM. The “Mean IC50 (viral replication)” value (SARS-CoV-2 [3]; [6]) was “No inhibition” and the “effect on viral replication” value (SARS-CoV-2 [3]) was “did not reduce viral replication”.
For COc1ccc2cc(-c3c(C(=O)O)cccc3C(=O)O)ccc2c1 [Naproxen C0], the Kd [4] is given as 1.6 µM, the “ability to inhibit COX” value (COX) is given as “lacked the ability to inhibit COX” and the “Oligomer Size (hydrodynamic diameter Dh of DNA-NTD complex)” value [2] is given as 12.7 ± 0.7 nm. For the same molecule, the CC50 (in vitro) was > 1000 µM, the CC50 at 48 h post infection (in vitro) was > 1000 µM and the CC50 at 72 h post infection (in vitro) was > 1000 µM. For the same molecule, the IC50 (SARS-CoV-2 [3]; Severe acute respiratory syndrome coronavirus 2, Vero C1008, Vero E6, MOI 0.01, treatment 1 hpi, read-out: Mean IC50 (viral replication)) was 75 ± 25 µM, the IC50 (SARS-CoV-2 [3]; Severe acute respiratory syndrome coronavirus 2, Vero C1008, Vero E6, MOI 0.01, unique treatment at 1 hpi, 48 hpi, read-out: IC50) was 101 µM and the IC50 (SARS-CoV-2 [3]; Severe acute respiratory syndrome coronavirus 2, Vero C1008, Vero E6, MOI 0.01, unique treatment at 1 hpi, 72 hpi, read-out: IC50) was 45.1 µM. For the same molecule, the IC50 (SARS-CoV-2 [3]; Vero E6, MOI 0.01, treatment 1 hpi, read-out: Mean IC50 (viral replication)) was 73 ± 25 µM.
In the case of COc1ccc2cc([C@H](C)C(=O)O)ccc2c1 [Naproxen, naproxen], the “antiviral effect versus mock-treated control” value (SARS-CoV-2 in nasal HAE) is given as “did not show an antiviral effect”, the IC50 (Influenza A virus; MOI = 10^−2) is given as 25 ± 7 µM and the IC50 (viral 3C-like protease) is given as 3.45 µM. For the same molecule, the “COX Inhibition” value (COX) was “COX1 + COX2”, the “Oligomer Size (hydrodynamic diameter Dh of DNA-NTD complex)” value [2] was 7.9 ± 0.3 nm and the IC50 (SARS-CoV-2 [3]; Severe acute respiratory syndrome coronavirus 2, Vero C1008, Vero E6, MOI 0.01, unique treatment at 1 hpi, 48 hpi) was 46.1 µM. The IC50 (SARS-CoV-2 [3]; Severe acute respiratory syndrome coronavirus 2, Vero C1008, Vero E6, MOI 0.01, unique treatment at 1 hpi, 72 hpi) was 59.5 µM, the IC50 (SARS-CoV-2 [3]; Severe acute respiratory syndrome coronavirus 2, Vero C1008, read-out: Mean IC50 (viral replication), Vero E6, MOI 0.01, treatment 1 hpi) was 50 ± 10 µM and the IC50 (SARS-CoV-2 [3]; read-out: Mean IC50 (viral replication), Vero E6, MOI 0.01, treatment 1 hpi) was 52 ± 6 µM.
In the case of CC(C)Cc1ccc(C(C)C(=O)O)cc1 (stereo not drawn) [ibuprofen], the “effect on SARS-CoV-2 entry or replication in vitro” value (SARS-CoV-2 [5]) is listed as “did not affect SARS-CoV-2 entry or replication in vitro”.
For Cc1cnc(NC(=O)C2=C(O)c3ccccc3S(=O)(=O)N2C)s1 [meloxicam], the “effect on SARS-CoV-2 entry or replication in vitro” value (SARS-CoV-2 [5]) is given as “did not affect SARS-CoV-2 entry or replication in vitro”.

From PMC8124269 (Molecules, 2021)
